Consider three molecules from patent US10875850B2, “Pesticidally active azetidine sulfones amide isoxazoline derivatives” (SYNGENTA PARTICIPATIONS AG, priority 2016, dated 2020).

SMILES strings stand for the structures. Some results are limits rather than exact numbers.

Broadly, the mortality is the percentage killed.

What all share (format): in vivo
In series [1] the test system is Tetranychus urticae. Nature of the series: Comparative Example C3: Tetranychus urticae, feeding/contact activity, various application rates. Conditions: 8 days after infestation. On the procedure:
(§1) Cotton leaf discs were placed onto agar in 24-well microtiter plates and sprayed with aqueous test solutions prepared from 10′000 ppm DMSO stock solutions. After drying the leaf discs were infested with five L1 larvae. The samples were assessed for mortality (%) 3 days after infestation at the various application rates. Example C3: Tetranychus urticae (Two-Spotted Spider Mite): Feeding/Contact Activity Bean leaf discs on agar in 24-well microtiter plates were sprayed with aqueous test solutions prepared from 10′000 ppm DMSO stock solutions. After drying the leaf discs were infested with a mite population of mixed ages. The samples were assessed for mortality on mixed population (%) (mobile stages) 8 days after infestation at the various application rates.

Series [2] relates to Plutella xylostella. Nature of the series: Comparative Example C1: Plutella xylostella, feeding/contact activity, various application rates. As to conditions: 5 days after infestation. As to the method: 24-well microtiter plates with artificial diet were treated with aqueous test solutions prepared from 10′000 ppm DMSO stock solutions by pipetting. After drying, the plates were infested with L2 larvae (10 to 15 per well). The samples were assessed for mortality (%) 5 days after infestation at the various application rates.

For series [3], the system named is Thrips tabaci. Nature of the series: Comparative Example C4: Thrips tabaci, feeding/contact activity, various application rates. Conditions: 6 days after infestation. On the procedure:
Sunflower leaf discs were placed on agar in 24-well microtiter plates and sprayed with aqueous test solutions prepared from 10′000 ppm DMSO stock solutions. After drying the leaf discs were infested with a thrips population of mixed ages. The samples were assessed for mortality (%) 6 days after infestation at the various application rates.

For series [4], the system named is Spodoptera littoralis. Nature of the series: Comparative Example C2: Spodoptera littoralis, feeding/contact activity, various application rates. Conditions: 3 days after infestation. As to the method:
as §1

Series [5] concerns Myzus persicae. Nature of the series: Example B3: Myzus persicae (green peach aphid), intrinsic activity. Conditions: 120 h. On the procedure:
Test compounds prepared from 10′000 ppm DMSO stock solutions were applied by pipette into 24-well microtiter plates and mixed with sucrose solution. The plates were closed with a stretched Parafilm. A plastic stencil with 24 holes was placed onto the plate and infested pea seedlings were placed directly on the Parafilm. The infested plate was closed with a gel blotting paper and another plastic stencil and then turned upside down. The samples were assessed for mortality 5 days after infestation.

Series [6] deals with Spodoptera littoralis. Nature of the series: Example B5: Spodoptera littoralis (Egyptian cotton leaf worm), feeding/contact activity. As to conditions: 72 h. On the procedure:
Cotton leaf discs were placed onto agar in 24-well microtiter plates and sprayed with aqueous test solutions prepared from 10′000 ppm DMSO stock solutions. After drying the leaf discs were infested with five L1 larvae. The samples were assessed for mortality 3 days after infestation.

Series [7] deals with Tetranychus urticae. Nature of the series: Example B6: Tetranychus urticae (two-spotted spider mite), feeding/contact activity. Conditions: 192 h, read-out: mortality on mixed population (mobile stages). As to the method:
Bean leaf discs on agar in 24-well microtiter plates were sprayed with aqueous test solutions prepared from 10′000 ppm DMSO stock solutions. After drying the leaf discs were infested with a mite population of mixed ages. The samples were assessed for mortality on mixed population (mobile stages) 8 days after infestation.

The subject of series [8] is Plutella xylostella. Nature of the series: Example B4: Plutella xylostella (diamond back moth), artificial diet. Conditions: 120 h, read-out: effect in at least one of the two categories (mortality or growth inhibition). On the procedure:
(§2) 24-well microtiter plates with artificial diet were treated with aqueous test solutions prepared from 10′000 ppm DMSO stock solutions by pipetting. After drying, the plates were infested with L2 larvae (10 to 15 per well). The samples were assessed for mortality and growth inhibition in comparison to untreated samples 5 days after infestation. The following compounds gave an effect of at least 80% in at least one of the two categories (mortality or growth inhibition) at an application rate of 200 ppm: A01, A02, A03, A04, A05, A06, A07, A08, A09, A10, A11, A12, A13, A14, A15, A16, A17, A18, A19, A20, A21, A22, A23, A24, A25, A26, A27, A28, B01

Another series concerns Diabrotica balteata. Nature of the series: Example B1: Diabrotica balteata (corn root worm), maize sprouts sprayed. Conditions: 96 h, read-out: effect in at least one of the two categories (mortality or growth inhibition). On the procedure:
as §2, with “Maize sprouts placed onto an agar layer in 24-well” for “24-well”, “plates” for “plates with artificial diet”, “by spraying.” for “by pipetting.”, “larvae (6” for “larvae (10”, “to 10” for “to 15”, “samples 4” for “samples 5”

For another series, the system named is Euschistus heros. Nature of the series: Example B2: Euschistus heros (neotropical brown stink bug), soybean leaves sprayed. As to conditions: 120 h, read-out: effect in at least one of the two categories (mortality or growth inhibition). As to the method:
Soybean leaves on agar in 24-well microtiter plates were sprayed with aqueous test solutions prepared from 10′000 ppm DMSO stock solutions. After drying the leaves were infested with N2 nymphs. The samples were assessed for mortality and growth inhibition in comparison to untreated samples 5 days after infestation. The following compounds gave an effect of at least 80% in at least one of the two categories (mortality or growth inhibition) at an application rate of 200 ppm: A01, A02, A03, A04, A05, A06, A07, A08, A09, A10, A11, A12, A13, A14, A15, A16, A17, A18, A19, A20, A21, A22, A23, A24, A25, A26, A27, A28, B01

The subject of series [9] is Thrips tabaci. Nature of the series: Example B7: Thrips tabaci (onion thrips), feeding/contact activity. As to conditions: 144 h. On the procedure:
Sunflower leaf discs were placed on agar in 24-well microtiter plates and sprayed with aqueous test solutions prepared from 10′000 ppm DMSO stock solutions. After drying the leaf discs were infested with a thrips population of mixed ages. The samples were assessed for mortality 6 days after infestation.

Series [10] relates to Myzus persicae. Nature of the series: Example B8: Myzus persicae (green peach aphid), feeding/contact activity. Conditions: 144 h. On the procedure: Sunflower leaf discs were placed onto agar in a 24-well microtiter plate and sprayed with aqueous test solutions prepared from 10′000 ppm DMSO stock solutions. After drying, the leaf discs were infested with an aphid population of mixed ages. The samples were assessed for mortality 6 days after infestation.

With `Cc1cc(C2=NOC(c3cc(Cl)cc(Cl)c3)(C(F)(F)F)C2)ccc1C(=O)NC1CN(S(C)(=O)=O)C1` (centres unmarked) [Compound A02], the “Tetranychus urticae mixed population average mortality (%)” value amounted to 0% in the series with Tetranychus urticae [1] (application rate 0.195 ppm); 50% in the series with Tetranychus urticae [1] (application rate 0.781 ppm); 100% in the series with Tetranychus urticae [1] (application rate 3.12 ppm); 100% with Tetranychus urticae [1] (application rate 12.5 ppm); 100% in the series on Tetranychus urticae [1] (application rate 50 ppm); 100% in the series on Tetranychus urticae [1] (application rate 200 ppm). In addition, the “Plutella xylostella larval average mortality (%)” value worked out at 80% in the series with Plutella xylostella [2] (application rate 0.195 ppm); 100% in the series on Plutella xylostella [2] (application rate 0.781 ppm); 100% in the series on Plutella xylostella [2] (application rate 3.12 ppm); 100% in the series on Plutella xylostella [2] (application rate 12.5 ppm); 100% in the series on Plutella xylostella [2] (application rate 50 ppm); 100% in the series with Plutella xylostella [2] (application rate 200 ppm). In addition, the “Thrips tabaci mixed population average mortality (%)” value in the series with Thrips tabaci [3] (application rate 0.195 ppm) came to 0%; in the series with Thrips tabaci [3] (application rate 0.781 ppm), 100%; with Thrips tabaci [3] (application rate 3.12 ppm), 100%; with Thrips tabaci [3] (application rate 12.5 ppm), 100%; in the series on Thrips tabaci [3] (application rate 50 ppm), 100%; in the series on Thrips tabaci [3] (application rate 200 ppm), 100%. In addition, the “Spodoptera littoralis larval average mortality (%)” value in the series on Spodoptera littoralis [4] (application rate 0.195 ppm) is reported as 50%; with Spodoptera littoralis [4] (application rate 0.781 ppm), 100%; in the series on Spodoptera littoralis [4] (application rate 3.12 ppm), 100%; in the series with Spodoptera littoralis [4] (application rate 12.5 ppm) it was 100%; in the series on Spodoptera littoralis [4] (application rate 50 ppm), 100%; with Spodoptera littoralis [4] (application rate 200 ppm), 100%.
For `CCS(=O)(=O)N1CC(NC(=O)c2ccc(C3=NO[C@@](c4cc(Cl)cc(Cl)c4)(C(F)(F)F)C3)cc2C)C1` [Compound A11, 4-[(5S)-5-(3,5-dichlorophenyl)-5-(trifluoromethyl)-4H-isoxazol-3-yl]-N-(1-ethylsulfonylazetidin-3-yl)-2-methyl-benzamide], the mortality at 12 ppm with Myzus persicae [5] is at least 80%. Also, the mortality at 200 ppm in the series on Spodoptera littoralis [6], with Tetranychus urticae [7] and in the series with Thrips tabaci [9] was at least 80% in each case. Further, the percent control (mortality or growth inhibition) at 200 ppm in the series with Plutella xylostella [8], with Diabrotica balteata and in the series with Euschistus heros was at least 80% each time.
For `CS(=O)(=O)N1CC(NC(=O)c2ccc(C3=NOC(c4cc(Cl)c(F)c(Cl)c4)(C(F)(F)F)C3)c3c2CCC3)C1` (centres unmarked) [Compound B01, 7-[5-(3,5-dichloro-4-fluoro-phenyl)-5-(trifluoromethyl)-4H-isoxazol-3-yl]-N-(1-methylsulfonylazetidin-3-yl)indane-4-carboxamide], the mortality at 200 ppm in the series on Spodoptera littoralis [6], in the series on Tetranychus urticae [7], with Myzus persicae [10] and with Thrips tabaci [9] was at least 80% throughout. In addition, the percent control (mortality or growth inhibition) at 200 ppm in the series on Plutella xylostella [8], in the series on Diabrotica balteata and in the series on Euschistus heros was at least 80% in each case.
